Assays:
[1] = tested on: cyclododecanone monooxygenase (CDMO); assay: Substrate specificity of cloned CDMO (relative activity towards cyclic ketones); assay type: biochemical, Pseudomonas putida strain HI-70; conditions: ketone as substrate, cyclododecanone = 100%
[2] = tested on: cyclododecanone monooxygenase (CDMO); assay: Comparison of CDMO activity in E. coli and native HI-70; assay type: biochemical, Pseudomonas putida strain HI-70

O=C1CCCCCCCCC1 [cyclodecanone]
relative activity [1]: 10%

O=C1CCCCCCCCCCC1 [cyclododecanone]
relative activity [1]: 100%

O=C1CCCCCCCCCCCCCC1 [cyclopentadecanone]
relative activity [1]: 144%

O=C1CCCCCCCCCCCC1 [cyclotridecanone]
relative activity [1]: 138%

O=C1CCCCCCCCCC1 [cycloundecanone]
relative activity [1]: 56%

B1: CDMO: cyclododecanone monooxygenase of Pseudomonas putida HI-70, encoded by cdnB, amino acid sequence SEQ ID NO:8 (protein)
chain: MSQLIQEPAEAGVTSQKVSFDHVALREKYRQERDKRLRQDGQEQYLEVAVTCDEYLKDPYADPIVRDPVVRETDVFIIGGGFGGLLAAVRLQQAGVSDYVMVERAGDYGGTWYWNRYPGAQCDIESYVYMPLLEEMGYIPTEKYAFGTEILEYSRSIGRKFGLYERTYFQTEVKDLSWDDEAARWRITTDRGDKFSARFVCMSTGPLQRPKLPGIPGITSFKGHSFHTSRWDYSYTGGDQTGNLEGLKDKRVAIIGTGATSIQAVPHLAAYAQELYVIQRTPISVGFRGNKPTDPEWAKSLQPGWQQARMDNFNAITHGMPVDVDLVQDSWTKIFGEIGVFLGSDGSRAQMVDFQLMEQIRARVDQEVKDPATAESLKPYYNIMCKRPGFHDSYLPSFNKPNVTLVDTQGAGVERITEKGLVVNGREYEVDCLIYATGFEYQTKLSRRNGYEIHGRNGQPLSDKWKDGLSTLWGYHIRDFPNCFILGNGQSAVTPNFTHMLNEAGKHVAYVVKHCLDERVDVFEPTAEAEQAWVDHVMSFAGIKQQYDRECTPSYYNNEGQVNDVALTRTTSTRAVRSLINILREWREKGDFAQFQQRKR
modifications: Primer
CDMO activity ([2]; from E. coli DH5α(pSD-cdnB)): 0.48 U/mg of protein | CDMO activity ([2]; original P. putida strain HI-70): 0.14 U/mg of protein

Source: patent US7217559B2, “Gene encoding cyclododecanone monooxygenase” (National Research Council of Canada, priority 2002, dated 2007)
